Data set [1] in a line: physchem.
Description: Dissociation constant (pKa)
The nature of data set [2]: physchem. The note with it: octanol/water.
Description: Partition coefficient (logP) (HPLC)
Data set [3] in a line: in vivo. The note with it: rat.
The species named for data set [4] is Mus musculus. The experiment in a line: animal or person.
Description: Effective dose for mouse writhing assay
The species entered for data set [5] is Rattus norvegicus. Description: animal or person.
Description: Effective dose for cotton pellet assay
For data set [6], the species on record is Rattus norvegicus. Description: animal or person. The source holds these as a separate data set.
Description: Effective dose for rat paw assay
Data set [7] is filed under the species Rattus norvegicus. Description: animal or person. Conditions: 168 h.
Description: Effective dose causing 50 % gastrointestinal erosion using seven-day chronic assay.
Data set [8] is filed under the species Rattus norvegicus. The experiment in a line: animal or person. Conditions: 168 h, read-out: MED.
Description: Minimum effective dose causing gastrointestinal erosion using seven-day chronic assay.
For data set [9], the species on record is Rattus norvegicus. Description: animal or person. The source holds these as a separate data set.
Description: Effective dose for adjuvant arthritis assay
The species entered for data set [10] is Rattus norvegicus. Description: Antiinflammatory activity using adjuvant arthritis assay. It is filed as functional.
Data set [11] in a line: Therapeutic ratio as the ratio of MED value to that of ED30 for the carrageenan rat paw assay. It is filed as ADME. Conditions: read-out: Therapeutic ratio.
Data set [12] is filed under the species Mus musculus. Description: […] activity using mouse writhing assay. The class given is functional. On the technique in general: An intraperitoneal irritant provokes the stretching counted in writhing tests.

As usually defined, the pKa is the negative logarithm of the acid dissociation constant. What is called logP is a log measure of how a compound divides between an organic and an aqueous phase. Low values mean lower lipophilicity, high ones higher lipophilicity. The ED50 is the midpoint of the dose-response relation. A high value points to weaker potency.

The structures appear in SMILES notation.

Consider `Cc1ccccc1C(=O)c1ccc2n1CCC2C(=O)O` (configuration not stated), for which the pKa in [1] came out at 3.44. The logP in data set [2] came out at 2.9.
The compound `CCOc1cccc(C(=O)c2ccc3n2CCC3C(=O)O)c1` (configuration not stated) came in with a pKa in [1] of 3.46. Moreover, the logP in [2] was found to be 3.31.
`O=C(c1ccc(Cl)cc1Cl)c1ccc2n1CCC2C(=O)O` (configuration not stated): the logP in data set [2] turned out to be 3.56.
The same measure, in the same setting: under `N#Cc1ccc(C(=O)c2ccc3n2CCC3C(=O)O)cc1` (configuration not stated) stands 2.21; under `O=C(c1ccccc1)c1ccc2n1CC(C(=O)O)C2` (configuration not stated), 2.57.
For `COc1ccc(C(=O)c2ccc3n2CCC3C(=O)O)cc1` (configuration not stated) [ANIROLAC], the selectivity ratio in data set [3] was determined as 39. In addition, the pKa in data set [1] was determined as 3.55. The same compound gave a log partition coefficient (logP) in data set [2] of 2.81. Besides, the values for the ED50 in [4], in data set [7] and in data set [9] were 70 mg/kg, 22 mg/kg/day and 1.7 mg/kg, respectively. The ED30 in data set [5] came out at 3 mg/kg; in data set [6], 15 mg/kg. In addition, the minimal effective dose in [8] stood at 7 mg/kg/day.
With `O=C(c1ccccc1O)c1ccc2n1CCC2C(=O)O` (configuration not stated), in data set [2], the logP is 2.94.
In [1], `O=C(c1ccccc1Cl)c1ccc2n1CCC2C(=O)O` (configuration not stated) showed a pKa of 4.33. This compound also came in with a lipophilicity (logP) in data set [2] of 2.71.
The compound `O=C(c1cccc(O)c1)c1ccc2n1CCC2C(=O)O` (configuration not stated) gave a logP in [2] of 2.18.
`O=C(c1cccc(F)c1)c1ccc2n1CCC2C(=O)O` (configuration not stated) returned a pKa in [1] of 3.46. This compound also showed a logP in [2] of 2.9.
For the compound `O=C(c1c(F)c(F)c(F)c(F)c1F)c1ccc2n1CCC2C(=O)O` (configuration not stated), in data set [2], the logP stood at 3.24.
On to `CCOc1ccc(C(=O)c2ccc3n2CCC3C(=O)O)cc1` (configuration not stated), for which the pKa in data set [1] stood at 3.46. The compound further displayed a logP in data set [2] of 3.3.
The compound `O=C(c1ccc(-c2ccccc2)cc1)c1ccc2n1CCC2C(=O)O` (configuration not stated) registered a logP in data set [2] of 4.27.
On the same count and under the same terms, under `O=C(c1c(F)cccc1F)c1ccc2n1CCC2C(=O)O` (configuration not stated) stands 2.47.
Still for that read-out and setting: then `O=C(c1ccc(Cl)cc1)c1ccc2n1CCCC2C(=O)O` (configuration not stated), with 3.6; and `O=C(c1cccc(C(F)(F)F)c1)c1ccc2n1CCC2C(=O)O` (configuration not stated), with 3.69; and `CSc1ccc(C(=O)c2ccc3n2CCC3C(=O)O)cc1` (configuration not stated), with 3.68.
Consider `O=C(c1cccc([N+](=O)[O-])c1)c1ccc2n1CCC2C(=O)O` (configuration not stated), for which, in [2], the logP came out at 2.47.
`O=C(c1ccc(F)cc1)c1ccc2n1CCC2C(=O)O` (configuration not stated): in [10], the Activity worked out at 1. The selectivity ratio in data set [3] came to 20. In [1], this compound showed a pKa of 3.51. For the same compound, the logP in data set [2] came out at 2.82. Further, the ED50 came to 70 mg/kg in data set [4], 13 mg/kg/day in data set [7] and 1.7 mg/kg in [9]. In addition, the ED30 stood at 3 mg/kg in data set [5] and 15 mg/kg in [6]. Moreover, the minimal effective dose in data set [8] was 5 mg/kg/day.
Turning to `COc1ccc(C(=O)c2ccc3n2CCCC3C(=O)O)cc1` (configuration not stated), in [2], the logP worked out at 2.9.
Still for that read-out and setting: then `O=C(c1ccc([N+](=O)[O-])cc1)c1ccc2n1CCC2C(=O)O` (configuration not stated), with 2.48; and `CSc1ccc(C(=O)c2ccc3n2CCCCC3C(=O)O)cc1` (configuration not stated), with 3.92.
Compound `Cc1cccc(C(=O)c2ccc3n2CCC3C(=O)O)c1` (configuration not stated) came in with a pKa in data set [1] of 3.44. In addition, the logP in data set [2] amounted to 3.23.
`C[S+]([O-])c1ccc(C(=O)c2ccc3n2CCC3C(=O)O)cc1` (configuration not stated) had a logP in data set [2] of 1.08.
`C#Cc1ccc(C(=O)c2ccc3n2CCC3C(=O)O)cc1` (configuration not stated): the logP in data set [2] came out at 3.33.
Regarding `O=C(c1ccc(F)cc1F)c1ccc2n1CCC2C(=O)O` (configuration not stated), in data set [2], the logP turned out to be 2.59.
The same measure, in the same setting: under `O=C(c1ccccc1)c1ccc2n1CCCCC2C(=O)O` (configuration not stated) stands 3.17.
Regarding `O=C(c1ccc(O)cc1)c1ccc2n1CCC2C(=O)O` (configuration not stated) [P-HYDROXY KETOROLAC], the logP in data set [2] was 2.17.
In data set [2], `O=C(c1ccccc1I)c1ccc2n1CCC2C(=O)O` (configuration not stated) returned a logP of 2.98.
The same measure, in the same setting: under `Cc1ccc(C(=O)c2ccc3n2CCCC3C(=O)O)cc1` (configuration not stated) stands 3.35.
On to `O=C(c1ccccc1)c1ccc2n1CCC2C(=O)O` (configuration not stated) [KETOROLAC], for which, in data set [11], the selectivity ratio turned out to be 18. The compound further showed a pKa in data set [1] of 3.49. Besides, the logP in data set [2] worked out at 2.72. Further, the ED50 in data set [4] is 70 mg/kg; in data set [7] it was 13 mg/kg/day; in [9] it was 1.7 mg/kg. The ED30 stood at 3 mg/kg in data set [5] and 15 mg/kg in [6]. Moreover, the minimal effective dose in data set [8] came to 5 mg/kg/day.
In data set [2], `CS(=O)(=O)c1ccc(C(=O)c2ccc3n2CCC3C(=O)O)cc1` (configuration not stated) came in with a logP of 1.41.
Compound `O=C(c1ccc(C(F)(F)F)cc1)c1ccc2n1CCC2C(=O)O` (configuration not stated) gave a logP in [2] of 3.71.
Take `O=C(c1ccc2ccccc2c1)c1ccc2n1CCC2C(=O)O` (configuration not stated): the pKa in data set [1] is 3.44. In [2], the logP was 3.97.
In data set [2], `O=C(c1ccc(Cl)cc1)c1ccc2n1CC(C(=O)O)C2` (configuration not stated) showed a log partition coefficient (logP) of 3.45.
The compound `CC(C)Oc1ccc(C(=O)c2ccc3n2CCC3C(=O)O)cc1` (configuration not stated) returned a pKa in data set [1] of 3.43. The compound further gave a logP in [2] of 3.38.
In turn, `CS(=O)(=O)c1ccc(C(=O)c2ccc3n2CCCC3C(=O)O)cc1` (configuration not stated) gave a logP in data set [2] of 1.53.
On the same count and under the same terms, under `C#CCOc1ccc(C(=O)c2ccc3n2CCC3C(=O)O)cc1` (configuration not stated) stands 3.63.
In data set [12], `C=Cc1ccc(C(=O)c2ccc3n2CCC3C(=O)O)cc1` (configuration not stated) had an Activity of approximately 200. The selectivity ratio in data set [3] amounted to 18. For the same compound, in data set [2], the logP is 3.47. Further, the figures for the ED50 in data set [4], in data set [7] and in data set [9] were 70 mg/kg, 13 mg/kg/day and 1.7 mg/kg, respectively. Moreover, the values for the ED30 in data set [5] and in data set [6] were 3 mg/kg and 15 mg/kg, respectively. In addition, in data set [8], the minimal effective dose turned out to be 5 mg/kg/day.
Consider `O=C(c1ccc(F)cc1)c1ccc2n1CCCCC2C(=O)O` (configuration not stated), for which, in data set [2], the logP worked out at 3.32.
For `O=C(c1cccc(Cl)c1)c1ccc2n1CCC2C(=O)O` (configuration not stated), the pKa in data set [1] was found to be 3.44. Moreover, the logP in data set [2] was determined as 3.48.
Compound `O=C(c1cccc(Cl)c1)c1ccc2n1CCCC2C(=O)O` (configuration not stated) showed a logP in data set [2] of 2.61.
The compound `N#Cc1cccc(C(=O)c2ccc3n2CCC3C(=O)O)c1` (configuration not stated) registered a logP in data set [2] of 2.14.
For `C=CCOc1ccc(C(=O)c2ccc3n2CCC3C(=O)O)cc1` (configuration not stated), the log partition coefficient (logP) in [2] came out at 3.48.
In data set [2], `CC(=O)c1ccc(C(=O)c2ccc3n2CCC3C(=O)O)cc1` (configuration not stated) yielded a logP of 2.27.
`CSc1ccc(C(=O)c2ccc3n2CCCC3C(=O)O)cc1` (configuration not stated) came in with a logP in data set [2] of 3.54.
On the same count and under the same terms, under `O=C(Cc1ccccc1)c1ccc2n1CCC2C(=O)O` (configuration not stated) stands 2.52.
The same measure, in the same setting: then `O=C(c1ccc(Br)cc1)c1ccc2n1CCC2C(=O)O` (configuration not stated), with 3.6; and `O=C(c1ccc2c(c1)OCO2)c1ccc2n1CCC2C(=O)O` (configuration not stated), with 3.61.
`CC(C)C(=O)Nc1cccc(C(=O)c2ccc3n2CCC3C(=O)O)c1` (configuration not stated): the logP in data set [2] was determined as 2.57.
Take `Cc1ccc(C(=O)c2ccc3n2CCC3C(=O)O)cc1` (configuration not stated): the selectivity ratio in [11] came out at 8. Besides, the pKa in data set [1] was 3.44. Also, the logP in [2] is 3.24. Also, the ED50 in [4] amounted to 70 mg/kg; in data set [7], 15 mg/kg/day; in [9], 1.7 mg/kg. In addition, the ED30 in [5] was found to be 3 mg/kg; in data set [6], 15 mg/kg. Also, in data set [8], the minimal effective dose was 3 mg/kg/day.
For `COc1cccc(C(=O)c2ccc3n2CCC3C(=O)O)c1` (configuration not stated), the logP in data set [2] was 2.74.
`CC(C)(C)C(=O)c1ccc2n1CCC2C(=O)O` (configuration not stated) came in with a pKa in data set [1] of 3.57. The logP in data set [2] is 2.6.
In turn, `O=C(c1ccc2n1CCC2C(=O)O)C1CCC1` (configuration not stated) yielded a pKa in data set [1] of 3.54. In data set [2], this compound showed a logP of 2.41.
In the case of `O=C(c1ccc(F)cc1)c1ccc2n1CCCC2C(=O)O` (configuration not stated), the logP in data set [2] is 2.94.

Source of the values: ChEMBL document CHEMBL1123117, “Synthesis and antiinflammatory and analgesic activity of 5-aroyl-1,2-dihydro-3H-pyrrolo[1,2-a]pyrrole-1-carboxylic acids and related compounds” (J Med Chem, 1985).
